Assay results: PubChem BioAssay AID2060490 (Molecular Pharmacology Branch, DTP, NCI, 2025)
Each block holds one compound with its values, some of them ahead of it.

System: 885512-296-R-J2-PDC complex spheroid viability
Assay: Anticancer human tumor 885512-296-R-J2-PDC patient-derived breast carcinoma cell line growth inhibition [GQUAD]
Details: for IC50: curve of first compound; for viability, T/C: stronger effect = lower value
How it was run: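 Tumor cells were grown as complex spheroids with HUVEC endothelial cells and mesenchymal stem cells as stroma. G-quadruplex stabilizers were combined with targeted agents over half-log dilutions from near the clinical Cmax, or from 10 microM.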

[1] = second compound 0.0316 µM, first compound 0.0316 µM
[2] = second compound 0.0316 µM, first compound 0.1 µM
[3] = second compound 0.0316 µM, first compound 0.316 µM
[4] = second compound 0.0316 µM, first compound 1 µM
[5] = second compound 0.0316 µM, first compound 3.16 µM
[6] = second compound 0.0316 µM, first compound 10 µM
[7] = second compound 0.1 µM, first compound 0.0316 µM
[8] = second compound 0.1 µM, first compound 0.1 µM
[9] = second compound 0.1 µM, first compound 0.316 µM
[10] = second compound 0.1 µM, first compound 1 µM
[11] = second compound 0.1 µM, first compound 3.16 µM
[12] = second compound 0.1 µM, first compound 10 µM
[13] = second compound 0.316 µM, first compound 0.0316 µM
[14] = second compound 0.316 µM, first compound 0.1 µM
[15] = second compound 0.316 µM, first compound 0.316 µM
[16] = second compound 0.316 µM, first compound 1 µM
[17] = second compound 0.316 µM, first compound 3.16 µM
[18] = second compound 0.316 µM, first compound 10 µM
[19] = second compound 1 µM, first compound 0.0316 µM
[20] = second compound 1 µM, first compound 0.1 µM
[21] = second compound 1 µM, first compound 0.316 µM
[22] = second compound 1 µM, first compound 1 µM
[23] = second compound 1 µM, first compound 3.16 µM
[24] = second compound 1 µM, first compound 10 µM
[25] = second compound 3.16 µM, first compound 0.0316 µM
[26] = second compound 3.16 µM, first compound 0.1 µM
[27] = second compound 3.16 µM, first compound 0.316 µM
[28] = second compound 3.16 µM, first compound 1 µM
[29] = second compound 3.16 µM, first compound 3.16 µM
[30] = second compound 3.16 µM, first compound 10 µM
[31] = second compound 10 µM, first compound 0.0316 µM
[32] = second compound 10 µM, first compound 0.1 µM
[33] = second compound 10 µM, first compound 0.316 µM
[34] = second compound 10 µM, first compound 1 µM
[35] = second compound 10 µM, first compound 3.16 µM
[36] = second compound 10 µM, first compound 10 µM
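Further: spheroids exposed to the compounds for one week.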
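Wherever viability, T/C is given: percent of tumor spheroid viability relative to DMSO vehicle control wells.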

IC50 (second compound 0.0316 µM): > 10 µM | IC50 (second compound 0.1 µM): > 10 µM | IC50 (second compound 0.316 µM): < 0.0316 µM | IC50 (second compound 1 µM): < 0.0316 µM | IC50 (second compound 3.16 µM): < 0.0316 µM | IC50 (second compound 10 µM): < 0.0316 µM
SMILES: C#Cc1c(F)ccc2cc(O)cc(-c3ncc4c(N5CC6CCC(C5)N6)nc(OCC56CCCN5CC(F)C6)nc4c3F)c12 (stereo not drawn) + Cc1cnc(CNC(=O)c2c(=O)c3ccc(N4CCCN(C)CC4)nc3n3c2sc2ccccc23)cn1
viability, T/C [1]: 81.9% | viability, T/C [2]: 80.5% | viability, T/C [3]: 85.2% | viability, T/C [4]: 83.9% | viability, T/C [5]: 96.2% | viability, T/C [6]: 83.5% | viability, T/C [7]: 60.2% | viability, T/C [8]: 60.3% | viability, T/C [9]: 69.4% | viability, T/C [10]: 59.8% | viability, T/C [11]: 66.5% | viability, T/C [12]: 56.5% | viability, T/C [13]: 32.4% | viability, T/C [14]: 26.6% | viability, T/C [15]: 31.7% | viability, T/C [16]: 34.7% | viability, T/C [17]: 22.9% | viability, T/C [18]: 31.9% | viability, T/C [19]: 24.9% | viability, T/C [20]: 23.8% | viability, T/C [21]: 24.6% | viability, T/C [22]: 28.2% | viability, T/C [23]: 29.4% | viability, T/C [24]: 23.9% | viability, T/C [25]: 24.8% | viability, T/C [26]: 32.1% | viability, T/C [27]: 26.4% | viability, T/C [28]: 28.7% | viability, T/C [29]: 29.1% | viability, T/C [30]: 9.52% | viability, T/C [31]: 0.12% | viability, T/C [32]: 0.16% | viability, T/C [33]: 0.18% | viability, T/C [34]: 0.13% | viability, T/C [35]: 0.19% | viability, T/C [36]: 0.16%

IC50 (second compound 0.0316 µM): > 10 µM | IC50 (second compound 0.1 µM): > 10 µM | IC50 (second compound 0.316 µM): < 0.0316 µM | IC50 (second compound 1 µM): < 0.0316 µM | IC50 (second compound 3.16 µM): < 0.0316 µM | IC50 (second compound 10 µM): < 0.0316 µM
SMILES: COc1ncnc(C2CC2)c1-c1ncc2cnn(Cc3ccc(-c4nc(C(F)(F)F)cn4C(C)C)cc3)c2n1 + Cc1cnc(CNC(=O)c2c(=O)c3ccc(N4CCCN(C)CC4)nc3n3c2sc2ccccc23)cn1
viability, T/C [1]: 94.7% | viability, T/C [2]: 76% | viability, T/C [3]: 76.9% | viability, T/C [4]: 78.2% | viability, T/C [5]: 80.6% | viability, T/C [6]: 77.7% | viability, T/C [7]: 62.5% | viability, T/C [8]: 52.4% | viability, T/C [9]: 54.4% | viability, T/C [10]: 51.4% | viability, T/C [11]: 61.5% | viability, T/C [12]: 58.8% | viability, T/C [13]: 22.1% | viability, T/C [14]: 24.6% | viability, T/C [15]: 24.9% | viability, T/C [16]: 29.5% | viability, T/C [17]: 27.3% | viability, T/C [18]: 22.5% | viability, T/C [19]: 27.8% | viability, T/C [20]: 35.9% | viability, T/C [21]: 29.4% | viability, T/C [22]: 20.9% | viability, T/C [23]: 32% | viability, T/C [24]: 29.5% | viability, T/C [25]: 23.5% | viability, T/C [26]: 29.2% | viability, T/C [27]: 26.2% | viability, T/C [28]: 29.4% | viability, T/C [29]: 32.7% | viability, T/C [30]: 29.4% | viability, T/C [31]: 0.13% | viability, T/C [32]: 0.18% | viability, T/C [33]: 0.34% | viability, T/C [34]: 0.18% | viability, T/C [35]: 1.03% | viability, T/C [36]: 0.25%

SMILES: COc1ncnc(C2CC2)c1-c1ncc2cnn(Cc3ccc(-c4nc(C(F)(F)F)cn4C(C)C)cc3)c2n1 + CN(C)c1ccc(Nc2c3ccc(NC(=O)CCN4CCCC4)cc3nc3cc(NC(=O)CCN4CCCC4)ccc23)cc1
IC50 (second compound 0.0316 µM): > 10 µM | IC50 (second compound 0.1 µM): > 10 µM | IC50 (second compound 0.316 µM): > 10 µM | IC50 (second compound 1 µM): > 10 µM | IC50 (second compound 3.16 µM): > 10 µM | IC50 (second compound 10 µM): < 0.0316 µM | viability, T/C [1]: 107% | viability, T/C [2]: 102% | viability, T/C [3]: 93.3% | viability, T/C [4]: 104% | viability, T/C [5]: 100% | viability, T/C [6]: 92.3% | viability, T/C [7]: 103% | viability, T/C [8]: 103% | viability, T/C [9]: 97.3% | viability, T/C [10]: 93.6% | viability, T/C [11]: 92.5% | viability, T/C [12]: 81.4% | viability, T/C [13]: 105% | viability, T/C [14]: 108% | viability, T/C [15]: 103% | viability, T/C [16]: 103% | viability, T/C [17]: 104% | viability, T/C [18]: 85.8% | viability, T/C [19]: 95% | viability, T/C [20]: 97.2% | viability, T/C [21]: 103% | viability, T/C [22]: 91% | viability, T/C [23]: 101% | viability, T/C [24]: 87.4% | viability, T/C [25]: 99.4% | viability, T/C [26]: 107% | viability, T/C [27]: 106% | viability, T/C [28]: 83.9% | viability, T/C [29]: 81.3% | viability, T/C [30]: 50.3% | viability, T/C [31]: 28.5% | viability, T/C [32]: 18.7% | viability, T/C [33]: 16.4% | viability, T/C [34]: 15.3% | viability, T/C [35]: 11.9% | viability, T/C [36]: 5.91%

SMILES: CC(C)(O)C1CCC(Nc2ccc3ncc(-c4cccc(C(F)(F)F)c4)n3n2)CC1 (stereo not drawn) + Cc1[nH]c2ccc(F)cc2c1-c1nc2c3cccnc3c3ncccc3c2[nH]1
IC50 (second compound 0.0316 µM): > 10 µM | IC50 (second compound 0.1 µM): > 10 µM | IC50 (second compound 0.316 µM): > 10 µM | IC50 (second compound 1 µM): 6.91 µM | IC50 (second compound 3.16 µM): < 0.0316 µM | IC50 (second compound 10 µM): < 0.0316 µM | viability, T/C [1]: 102% | viability, T/C [2]: 92.3% | viability, T/C [3]: 92.1% | viability, T/C [4]: 95.3% | viability, T/C [5]: 99% | viability, T/C [6]: 81.1% | viability, T/C [7]: 106% | viability, T/C [8]: 101% | viability, T/C [9]: 92.8% | viability, T/C [10]: 76.1% | viability, T/C [11]: 84.9% | viability, T/C [12]: 86.9% | viability, T/C [13]: 101% | viability, T/C [14]: 89.6% | viability, T/C [15]: 83.1% | viability, T/C [16]: 92.5% | viability, T/C [17]: 81.8% | viability, T/C [18]: 63.6% | viability, T/C [19]: 69% | viability, T/C [20]: 70.7% | viability, T/C [21]: 73.6% | viability, T/C [22]: 69.9% | viability, T/C [23]: 58.6% | viability, T/C [24]: 45.3% | viability, T/C [25]: 9.24% | viability, T/C [26]: 12.2% | viability, T/C [27]: 10.3% | viability, T/C [28]: 10.4% | viability, T/C [29]: 12.7% | viability, T/C [30]: 2.78% | viability, T/C [31]: 1.94% | viability, T/C [32]: 1.3% | viability, T/C [33]: 2.71% | viability, T/C [34]: 3.75% | viability, T/C [35]: 4.01% | viability, T/C [36]: 1%
